Experimental data as given in patent US11021467B2, “Phosphatidylinositol 3-kinase inhibitors” (Gilead Sciences, Inc., priority 2014, dated 2021).

What was measured:
Experiment in all cases: TR-FRET enzymatic activity assay against PI3K isoforms
Type in all cases: biochemical
PI3Kδ = PI3Kδ (Homo sapiens (Human), UniProt O00329); settings: 2×Km ATP, 30 minutes at 25° C.
From the text: (§1) The compounds of formula (I) were characterized for their enzymatic activity against the PI3K isoforms. […] TR-FRET monitored the formation of 3,4,5-inositol triphosphate molecule that competed with fluorescently labeled PIP3 for binding to the GRP-1 pleckstrin homology domain protein.

PI3Kβ = PI3Kβ (Homo sapiens (Human), UniProt P42338); settings: for IC50: PI3Kβ, TR-FRET, 2×Km ATP, 30 minutes at 25° C.; for PI3Kγ/PI3Kβ ratio: ratio of IC50 values, selectivity for PI3Kβ over PI3Kγ
Sequence of PI3Kβ (P42338 whole entry): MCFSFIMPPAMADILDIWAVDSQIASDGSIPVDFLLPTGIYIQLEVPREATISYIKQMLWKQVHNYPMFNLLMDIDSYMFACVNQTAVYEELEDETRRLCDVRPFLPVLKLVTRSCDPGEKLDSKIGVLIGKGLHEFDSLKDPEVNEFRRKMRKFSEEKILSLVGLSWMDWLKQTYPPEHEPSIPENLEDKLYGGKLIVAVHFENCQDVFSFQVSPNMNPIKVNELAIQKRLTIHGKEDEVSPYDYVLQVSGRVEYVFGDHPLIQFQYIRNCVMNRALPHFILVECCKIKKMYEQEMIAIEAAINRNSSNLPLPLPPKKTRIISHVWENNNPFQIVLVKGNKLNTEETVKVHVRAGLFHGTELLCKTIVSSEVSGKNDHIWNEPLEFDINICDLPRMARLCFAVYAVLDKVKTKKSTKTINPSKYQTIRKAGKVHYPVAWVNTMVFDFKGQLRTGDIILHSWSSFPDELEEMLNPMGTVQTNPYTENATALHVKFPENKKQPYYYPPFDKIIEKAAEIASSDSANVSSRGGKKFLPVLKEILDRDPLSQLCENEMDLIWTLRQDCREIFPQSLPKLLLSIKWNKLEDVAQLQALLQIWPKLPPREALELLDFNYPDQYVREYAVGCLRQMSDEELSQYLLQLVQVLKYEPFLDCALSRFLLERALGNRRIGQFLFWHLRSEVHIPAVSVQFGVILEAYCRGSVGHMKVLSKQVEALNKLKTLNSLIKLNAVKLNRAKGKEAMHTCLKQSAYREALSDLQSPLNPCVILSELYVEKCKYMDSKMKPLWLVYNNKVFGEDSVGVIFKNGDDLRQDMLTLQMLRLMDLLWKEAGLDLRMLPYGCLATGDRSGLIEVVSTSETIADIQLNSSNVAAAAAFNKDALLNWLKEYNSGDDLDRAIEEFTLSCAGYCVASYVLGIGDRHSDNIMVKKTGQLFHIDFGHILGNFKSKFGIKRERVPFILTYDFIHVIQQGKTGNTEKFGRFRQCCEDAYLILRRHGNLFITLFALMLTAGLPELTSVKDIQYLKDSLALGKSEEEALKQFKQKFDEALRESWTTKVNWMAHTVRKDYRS
Sequence of PI3Kβ (P27986 whole entry partner): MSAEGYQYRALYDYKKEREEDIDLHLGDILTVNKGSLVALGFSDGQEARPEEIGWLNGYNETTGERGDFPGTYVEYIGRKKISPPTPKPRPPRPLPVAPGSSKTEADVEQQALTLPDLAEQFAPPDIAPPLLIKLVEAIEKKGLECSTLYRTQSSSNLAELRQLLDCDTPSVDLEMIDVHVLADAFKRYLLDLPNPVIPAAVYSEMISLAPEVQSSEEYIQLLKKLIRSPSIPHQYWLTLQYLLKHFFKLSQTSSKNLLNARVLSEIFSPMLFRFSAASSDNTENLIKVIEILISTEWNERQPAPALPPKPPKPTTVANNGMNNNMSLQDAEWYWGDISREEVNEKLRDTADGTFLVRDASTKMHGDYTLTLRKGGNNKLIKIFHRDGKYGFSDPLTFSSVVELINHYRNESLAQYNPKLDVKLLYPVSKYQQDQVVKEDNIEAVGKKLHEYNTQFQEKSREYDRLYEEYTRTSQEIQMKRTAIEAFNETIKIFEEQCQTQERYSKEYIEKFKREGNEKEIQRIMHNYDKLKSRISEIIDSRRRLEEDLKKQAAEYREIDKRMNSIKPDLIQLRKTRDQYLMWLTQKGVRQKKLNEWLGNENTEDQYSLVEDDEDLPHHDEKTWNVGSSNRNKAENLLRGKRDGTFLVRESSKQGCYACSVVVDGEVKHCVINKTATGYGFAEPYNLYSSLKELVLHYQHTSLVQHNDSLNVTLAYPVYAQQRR
From the text: as §1

PI3Kγ = PI3Kγ (Homo sapiens (Human), UniProt P48736); settings: 2×Km ATP, 30 minutes at 25° C.
Sequence of PI3Kγ (P48736 whole entry): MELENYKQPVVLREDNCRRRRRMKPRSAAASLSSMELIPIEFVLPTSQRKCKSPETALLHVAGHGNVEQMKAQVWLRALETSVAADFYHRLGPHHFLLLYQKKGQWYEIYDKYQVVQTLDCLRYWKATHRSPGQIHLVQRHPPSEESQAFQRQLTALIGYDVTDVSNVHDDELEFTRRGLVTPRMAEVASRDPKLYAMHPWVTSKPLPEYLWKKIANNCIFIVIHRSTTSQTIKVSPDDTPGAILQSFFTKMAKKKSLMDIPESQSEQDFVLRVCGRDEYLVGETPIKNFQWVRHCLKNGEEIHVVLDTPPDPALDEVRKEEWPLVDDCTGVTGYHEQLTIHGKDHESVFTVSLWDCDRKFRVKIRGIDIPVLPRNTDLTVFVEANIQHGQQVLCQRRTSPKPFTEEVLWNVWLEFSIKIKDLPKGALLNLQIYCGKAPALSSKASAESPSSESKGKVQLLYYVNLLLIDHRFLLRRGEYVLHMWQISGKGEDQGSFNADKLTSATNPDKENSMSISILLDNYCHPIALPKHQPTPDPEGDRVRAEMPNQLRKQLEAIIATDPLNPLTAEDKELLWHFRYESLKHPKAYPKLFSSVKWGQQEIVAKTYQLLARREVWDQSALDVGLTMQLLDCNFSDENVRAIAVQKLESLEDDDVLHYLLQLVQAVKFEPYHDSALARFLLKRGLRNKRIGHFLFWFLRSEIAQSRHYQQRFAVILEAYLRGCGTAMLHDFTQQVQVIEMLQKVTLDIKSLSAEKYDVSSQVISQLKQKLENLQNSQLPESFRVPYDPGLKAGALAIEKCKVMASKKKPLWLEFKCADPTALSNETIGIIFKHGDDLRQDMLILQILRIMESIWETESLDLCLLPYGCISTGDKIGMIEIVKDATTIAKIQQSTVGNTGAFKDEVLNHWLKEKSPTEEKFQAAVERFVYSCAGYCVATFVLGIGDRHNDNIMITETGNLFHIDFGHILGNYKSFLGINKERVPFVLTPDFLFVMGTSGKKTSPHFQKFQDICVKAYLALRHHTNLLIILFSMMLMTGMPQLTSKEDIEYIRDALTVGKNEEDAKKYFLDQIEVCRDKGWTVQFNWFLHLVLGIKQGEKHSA
From the text: as §1

Sequence of PI3Kδ (O00329 whole entry, the tested form may be a part, canonical isoform): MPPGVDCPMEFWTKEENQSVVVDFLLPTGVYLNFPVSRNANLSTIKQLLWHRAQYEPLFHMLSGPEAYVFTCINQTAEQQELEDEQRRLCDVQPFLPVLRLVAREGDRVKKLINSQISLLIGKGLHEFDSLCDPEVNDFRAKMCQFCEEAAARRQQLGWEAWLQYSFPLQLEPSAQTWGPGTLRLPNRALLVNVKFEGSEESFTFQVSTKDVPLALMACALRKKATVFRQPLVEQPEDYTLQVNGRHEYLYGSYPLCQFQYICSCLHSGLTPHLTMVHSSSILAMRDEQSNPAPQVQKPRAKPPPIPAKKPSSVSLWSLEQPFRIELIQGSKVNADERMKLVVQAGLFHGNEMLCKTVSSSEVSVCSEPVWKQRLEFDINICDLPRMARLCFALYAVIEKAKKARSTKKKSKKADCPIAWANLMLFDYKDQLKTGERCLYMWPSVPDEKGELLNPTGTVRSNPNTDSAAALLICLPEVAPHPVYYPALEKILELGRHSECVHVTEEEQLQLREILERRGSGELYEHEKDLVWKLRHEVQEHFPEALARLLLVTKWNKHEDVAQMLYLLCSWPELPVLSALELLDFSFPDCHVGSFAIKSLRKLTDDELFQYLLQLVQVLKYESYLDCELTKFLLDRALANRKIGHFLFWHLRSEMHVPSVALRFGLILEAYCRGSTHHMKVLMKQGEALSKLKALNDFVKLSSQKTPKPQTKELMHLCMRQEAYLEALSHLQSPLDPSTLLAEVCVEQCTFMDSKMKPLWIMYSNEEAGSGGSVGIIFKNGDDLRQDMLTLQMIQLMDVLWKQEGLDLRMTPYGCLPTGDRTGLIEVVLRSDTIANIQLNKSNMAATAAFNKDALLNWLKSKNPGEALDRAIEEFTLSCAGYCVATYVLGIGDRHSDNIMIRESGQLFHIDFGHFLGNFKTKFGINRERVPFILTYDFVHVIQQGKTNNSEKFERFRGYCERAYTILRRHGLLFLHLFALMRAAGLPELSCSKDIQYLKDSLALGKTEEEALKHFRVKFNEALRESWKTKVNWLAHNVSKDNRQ
Sequence of PI3Kδ (P27986 whole entry partner, the tested form may be a part, canonical isoform): as the sequence (P27986 whole entry partner) above

IC50 (PI3Kδ) | IC50 (PI3Kβ) | IC50 (PI3Kγ) | PI3Kγ/PI3Kβ ratio (PI3Kβ) | PI3Kγ/PI3Kβ ratio (PI3Kβ; listed as (S)-2,4-diamino-6-(1-(5-chloro-4-oxo-3-phenyl-3,4-dihydroquinazolin-2-yl)ethyl)) | SMILES
0.003 µM | 0.079 µM | 1.3 µM | – | – | C[C@H](Nc1nc(N)nc(N)c1C#N)c1nc2cccc(Cl)c2c(=O)n1CC1CCCNC1 (stereo in doubt) [Compound 123, 2,4-diamino-6-(((S)-1-(5-chloro-4-oxo-3-((R)-piperidin-3-ylmethyl)-3,4-dihydroquinazolin-2-yl)ethyl)amino)pyrimidine-5-carbonitrile]
0.002 µM | 0.088 µM | 3.2 µM | – | – | C[C@H](Nc1nc(N)nc(N)c1C#N)c1nc2cccc(Cl)c2c(=O)n1CC1CCCNC1 (stereo in doubt) [Compound 124, 2,4-diamino-6-(((S)-1-(5-chloro-4-oxo-3-((S)-piperidin-3-ylmethyl)-3,4-dihydroquinazolin-2-yl)ethyl)amino)pyrimidine-5-carbonitrile]
0.009 µM | 0.027 µM | ≥ 10 µM | – | – | N#Cc1c(N)nc(N)nc1N[C@@H](c1ccccc1)c1nc2cccc(Cl)c2c(=O)n1CCCN [Compound 1, (S)-2,4-diamino-6-(((3-(3-aminopropyl)-5-chloro-4-oxo-3,4-dihydroquinazolin-2-yl)(phenyl)methyl)amino)pyrimidine-5-carbonitrile]
0.027 µM | 1.5 µM | ≥ 10 µM | – | – | C[C@H](Nc1ncnc2scnc12)c1nc2cccc(Cl)c2c(=O)n1CCC(C)(C)N [Compound 2, (S)-3-(3-amino-3-methylbutyl)-5-chloro-2-(1-(thiazolo[5,4-d]pyrimidin-7-ylamino)ethyl)quinazolin-4(3H)-one]
0.015 µM | 1.3 µM | ≥ 10 µM | – | – | C[C@H](Nc1ncnc(N)c1C#N)c1nc2cccc(Cl)c2c(=O)n1CCC(C)(C)N [Compound 3, (S)-4-amino-6-((1-(3-(3-amino-3-methylbutyl)-5-chloro-4-oxo-3,4-dihydroquinazolin-2-yl)ethyl)amino)pyrimidine-5-carbonitrile]
0.005 µM | 0.42 µM | 0.66 µM | – | – | C[C@H](Nc1nc(N)nc(N)c1C#N)c1nc2cccc(Cl)c2c(=O)n1CCCNc1ncccn1 [Compound 4, (S)-2,4-diamino-6-((1-(5-chloro-4-oxo-3-(3-(pyrimidin-2-ylamino)propyl)-3,4-dihydroquinazolin-2-yl)ethyl)amino)pyrimidine-5-carbonitrile]
0.005 µM | 0.93 µM | 2.2 µM | – | – | C[C@H](Nc1nc(N)nc(N)c1C#N)c1nc2cccc(Cl)c2c(=O)n1CCCNc1ccccn1 [Compound 5, (S)-2,4-diamino-6-((1-(5-chloro-4-oxo-3-(3-(pyridin-2-ylamino)propyl)-3,4-dihydroquinazolin-2-yl)ethyl)amino)pyrimidine-5-carbonitrile]
0.009 µM | 0.25 µM | ≥ 10 µM | – | – | C[C@H](Nc1ncnc(N)c1C#N)c1nc2cccc(Cl)c2c(=O)n1CCCNCc1ccccc1 [Compound 6, (S)-4-amino-6-((1-(3-(3-(benzylamino)propyl)-5-chloro-4-oxo-3,4-dihydroquinazolin-2-yl)ethyl)amino)pyrimidine-5-carbonitrile]
0.035 µM | 0.14 µM | ≥ 10 µM | – | – | C[C@H](Nc1nc(N)nc(N)c1Cl)c1nc2cccc(Cl)c2c(=O)n1CCCN [Compound 7, (S)-3-(3-aminopropyl)-5-chloro-2-(1-((2,6-diamino-5-chloropyrimidin-4-yl)amino)ethyl)quinazolin-4(3H)-one]
0.005 µM | 0.068 µM | 1.7 µM | – | – | C[C@H](Nc1nc(N)nc(N)c1C#N)c1nc2cccc(Cl)c2c(=O)n1CCCNCc1ccccc1 [Compound 8, (S)-2,4-diamino-6-((1-(3-(3-(benzylamino)propyl)-5-chloro-4-oxo-3,4-dihydroquinazolin-2-yl)ethyl)amino)pyrimidine-5-carbonitrile]
0.077 µM | 0.17 µM | ≥ 10 µM | – | – | C[C@H](Nc1nc(N)nc(N)c1C#N)c1nc2cccc(Cl)c2c(=O)n1N(CCN)Cc1ccccc1 [Compound 9, (S)-2,4-diamino-6-((1-(3-((2-aminoethyl)(benzyl)amino)-5-chloro-4-oxo-3,4-dihydroquinazolin-2-yl)ethyl)amino)pyrimidine-5-carbonitrile]
0.48 µM | 0.84 µM | ≥ 10 µM | – | – | C[C@H](Nc1nc(N)nc(N)c1C#N)c1nc2cccc(Cl)c2c(=O)n1N(CCN)Cc1ccccc1 [Compound 10, (S)-2,4-diamino-6-((1-(3-((2-aminoethyl)(benzyl)amino)-5-chloro-4-oxo-3,4-dihydroquinazolin-2-yl)ethyl)amino)pyrimidine-5-carbonitrile]
0.037 µM | 0.093 µM | ≥ 10 µM | – | – | C[C@H](Nc1ncnn2ccnc12)c1nc2cccc(Cl)c2c(=O)n1N(C)CCN [Compound 11, (S)-3-((2-aminoethyl)(methyl)amino)-5-chloro-2-(1-(imidazo[2,1-f][1,2,4]triazin-4-ylamino)ethyl)quinazolin-4(3H)-one]
0.052 µM | 0.3 µM | ≥ 10 µM | – | – | C[C@H](Nc1ncnc(N)c1C#N)c1nc2cccc(Cl)c2c(=O)n1N(CCN)Cc1ccccc1 [Compound 12, (S)-4-amino-6-((1-(3-((2-aminoethyl)(benzyl)amino)-5-chloro-4-oxo-3,4-dihydroquinazolin-2-yl)ethyl)amino)pyrimidine-5-carbonitrile]
3.3 µM | 6.8 µM | ≥ 10 µM | – | – | C[C@H](Nc1ncnc(N)c1C#N)c1nc2cccc(Cl)c2c(=O)n1N(CCN)Cc1ccccc1 [Compound 13, (S)-4-amino-6-((1-(3-((2-aminoethyl)(benzyl)amino)-5-chloro-4-oxo-3,4-dihydroquinazolin-2-yl)ethyl)amino)pyrimidine-5-carbonitrile]
0.002 µM | 0.009 µM | 1.9 µM | – | – | C[C@H](Nc1nc(N)nc(N)c1C#N)c1nc2cccc(Cl)c2c(=O)n1N(C)CCN [Compound 14, (S)-2,4-diamino-6-((1-(3-((2-aminoethyl)(methyl)amino)-5-chloro-4-oxo-3,4-dihydroquinazolin-2-yl)ethyl)amino)pyrimidine-5-carbonitrile]
0.003 µM | 0.002 µM | 1.7 µM | – | – | C[C@H](Nc1nc(N)nc(N)c1C#N)c1nc2cccc(Cl)c2c(=O)n1N(C)CCN [Compound 15, (S)-2,4-diamino-6-((1-(3-((2-aminoethyl)(methyl)amino)-5-chloro-4-oxo-3,4-dihydroquinazolin-2-yl)ethyl)amino)pyrimidine-5-carbonitrile]
0.007 µM | 0.042 µM | ≥ 10 µM | – | – | C[C@H](Nc1ncnc(N)c1C#N)c1nc2cccc(Cl)c2c(=O)n1N(C)CCN [Compound 16, (S)-4-amino-6-((1-(3-((2-aminoethyl)(methyl)amino)-5-chloro-4-oxo-3,4-dihydroquinazolin-2-yl)ethyl)amino)pyrimidine-5-carbonitrile]
0.011 µM | 0.069 µM | ≥ 10 µM | – | – | C[C@H](Nc1ncnc(N)c1C#N)c1nc2cccc(Cl)c2c(=O)n1N(C)CCN [Compound 17, (S)-4-amino-6-((1-(3-((2-aminoethyl)(methyl)amino)-5-chloro-4-oxo-3,4-dihydroquinazolin-2-yl)ethyl)amino)pyrimidine-5-carbonitrile]
0.37 µM | 0.36 µM | ≥ 10 µM | – | – | C[C@H](NC(=O)c1nccnc1N)c1nc2cccc(Cl)c2c(=O)n1CCCN [Compound 18, (S)-3-amino-N-(1-(3-(3-aminopropyl)-5-chloro-4-oxo-3,4-dihydroquinazolin-2-yl)ethyl)pyrazine-2-carboxamide]
0.014 µM | 1.3 µM | ≥ 10 µM | – | – | C[C@H](Nc1ncnc2[nH]cnc12)c1nc2cccc(Cl)c2c(=O)n1CCCN1CCOCC1 [Compound 19, (S)-2-(1-((9H-purin-6-yl)amino)ethyl)-5-chloro-3-(3-morpholinopropyl)quinazolin-4(3H)-one]
0.025 µM | 0.09 µM | ≥ 10 µM | – | – | Cc1ncnc(N[C@@H](C)c2nc3cccc(Cl)c3c(=O)n2CCCN)c1C#N [Compound 23, (S)-4-((1-(3-(3-aminopropyl)-5-chloro-4-oxo-3,4-dihydroquinazolin-2-yl)ethyl)amino)-6-methylpyrimidine-5-carbonitrile]
0.006 µM | 0.051 µM | ≥ 10 µM | – | – | CC(CCN)n1c([C@H](C)Nc2ncnc(N)c2C#N)nc2cccc(Cl)c2c1=O (stereo partly drawn) [Compound 24, 4-amino-6-(((1S)-1-(3-(4-aminobutan-2-yl)-5-chloro-4-oxo-3,4-dihydroquinazolin-2-yl)ethyl)amino)pyrimidine-5-carbonitrile]
0.1 µM | 1.3 µM | ≥ 10 µM | – | – | CC(CN)n1c([C@H](C)Nc2ncnc(N)c2C#N)nc2cccc(Cl)c2c1=O (stereo partly drawn) [Compound 25, 4-amino-6-(((1S)-1-(3-(1-aminopropan-2-yl)-5-chloro-4-oxo-3,4-dihydroquinazolin-2-yl)ethyl)amino)pyrimidine-5-carbonitrile]
0.15 µM | 0.74 µM | ≥ 10 µM | – | – | C[C@H](Nc1ncnc(N)c1C#N)c1nc2cccc(Cl)c2c(=O)n1CCN [Compound 26, (S)-4-amino-6-((1-(3-(2-aminoethyl)-5-chloro-4-oxo-3,4-dihydroquinazolin-2-yl)ethyl)amino)pyrimidine-5-carbonitrile]
– | – | – | 0.6 | less than 1 | C[C@H](Nc1nc(N)nc(N)c1C#N)c1nc2cccc(Cl)c2c(=O)n1-c1ccccc1 [Compound X, (S)-2,4-diamino-6-((1-(5-chloro-4-oxo-3-phenyl-3,4-dihydroquinazolin-2-yl)ethyl)amino)pyrimidine-5-carbonitrile, reference compound]
